# Measurements reported in PMC9706920, “Aryloxypropanolamine targets amyloid aggregates and reverses Alzheimer-like phenotypes in Alzheimer mouse models” (Alzheimer's Research & Therapy, 2022).
# Columns and labels:
# [1] = target: T1, recombinant tau K18 aggregates (Homo sapiens, UniProt P10636); assay: ThT fluorescence tau K18 disaggregation assay; format: biochemical; conditions: K18 35 μM pre-aggregated 3 days, 50 and 500 μM compound for additional 3 days; concentration of the printed value not stated
# T1 construct: Recombinant tau K18 fragments, […]; made in house; host or cells: Escherichia coli BL21 (DE3)
# T1 sequence (P10636 561-689): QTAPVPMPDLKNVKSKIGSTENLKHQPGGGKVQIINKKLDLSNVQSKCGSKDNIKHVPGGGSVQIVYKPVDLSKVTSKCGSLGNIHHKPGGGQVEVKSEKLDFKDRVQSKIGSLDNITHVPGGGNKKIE
# Method: ThT fluorescence was used to assess the in vitro inhibition of Aβ(1–42) and disaggregation of Aβ(1–42), Aβ(1–40), Aβ(pE3-42), recombinant tau K18, and tau repeats R1, R2, R3, R4 by YIAD compounds. In house synthetic Aβ(1–42) was dissolved in DMSO (1 mM, 100% DMSO) and diluted to 20-fold in deionized water to make 50 μM Aβ(1–42) stocks (5% DMSO). YIAD compounds were first dissolved in DMSO (100 mM, 100% DMSO) and serially diluted with deionized water to make YIAD stocks with concentrations of 1, 10, 100, and 1000 μM (10% DMSO). For the Aβ(1–42) inhibition assay, monomeric Aβ(1–42) stocks and YIAD stocks were co-incubated at 37°C for 3 days. For Aβ(1–42) disaggregation assay, monomeric Aβ(1–42) stocks were preincubated at 37°C for three days to form Aβ(1–42) aggregates, and subsequently, YIAD stocks were added for an additional 3 days. For Aβ(1-40) disaggregation assays, Aβ(1–40) (50 μM, 5% DMSO) was preincubated at 37°C for 3 days to induce aggregation, and co-incubated with YIAD001 and YIAD002 for an additional 3 days. […] Prior to fluorescence intensity measurement, ThT solution (5 μM) was prepared by dissolving ThT, purchased from Sigma-Aldrich (MO, USA) in 50 mM glycine buffer (pH 8.5). To quantify the effect of inhibition and disaggregation, 25 μL of all samples and 75 μL of ThT solution were loaded into a half-area 96-well black plate in triplicate.
# 5XFAD mice [2] = assay: 6E10 immunohistochemical staining of amyloid plaques in 5XFAD mice after oral administration; format: in vivo, mouse; conditions: 50 mg/kg/day via drinking water, 5 weeks, 4.5-month-old female 5XFAD mice, vs vehicle
# Method: (§1) To test the in vivo efficacy of YIAD001 and YIAD002, female 5XFAD mice (n = 25) and female wildtype mice (n = 7) were assessed at the age of 4.5 months. YIAD compounds were dissolved in DMSO and diluted in drinking water to a final concentration of 50 mg/kg/day (5% DMSO, 5% Tween) for oral administration. The three compounds, YIAD001, YIAD002, and YIAD003, were freely administered via drinking water to 4.5-month-old 5XFAD mice (n = 6 for each group) for 5 weeks. As a control, 5% DMSO, 5% Tween in drinking water was provided ad libitum to littermate 5XFAD mice (n = 7) and wildtype mice (n = 7) for 5 weeks.
# (§2) After the administration period, the mice were deeply anaesthetized with 4% avertin through intraperitoneal injection and transcardially perfused with 0.9% saline. Subsequently, the mice were sacrificed for brain excision. Each collected brain was divided through the mid-sagittal section; the hippocampal and cortical regions were dissected from one half and stored at −80°C for subsequent brain lysates, while the other half was immersed in 4% paraformaldehyde (pH 7.4) for 24 h and 30% sucrose for 48 h at 4°C and subsequently deep-froze at −80°C for immunohistochemistry.
# Coronal hippocampal sections of 5XFAD mice brains (35 μm) were cut with a Cryostat (Leica, CM1860) and mounted onto glass slides. Antigen retrieval was performed by submerging slides in 1% SDS and unspecific binding was blocked through incubation in 20% horse serum in PBS for 1 h at RT. Aβ deposits were visualized through immunolabeling by anti-6E10 antibody (1:200 in PBS with 5% horse serum, Biolegend 803003) and detection by fluorescent secondary antibody (1:200 in PBS, IgG Alexa 488). Brain sections were additionally stained with Hoechst 33342. Fluorescent images of the brain sections were taken on a Leica DM2500 fluorescence microscope. Amyloid plaques were quantified using Image-J software (NIH).
# 5XFAD mice [3] = assay: Western blot of brain lysates of 5XFAD mice; format: in vivo, mouse; conditions: 50 mg/kg/day, 5 weeks
# Method: as §1, §2
# Isolated cortical and hippocampal tissue samples were homogenized in ice-cold RIPA buffer with protease inhibitor cocktail and phosphatase inhibitor cocktail. Lysed tissues were incubated in ice for 30 min and subsequently centrifuged at 14,000 rpm at 4°C for 30 min. The supernatants of the brain lysates were collected and soluble protein concentrations were quantified with the Pierce BCA protein assay kit (Thermo Fisher Scientific, USA).
# Western blot analysis was performed to assess YIAD002-induced alterations of protein biomarkers in 5XFAD mice brain lysates. Twenty micrograms of lysate samples were loaded onto 12% tris-tricine gels, separated by SDS-PAGE, and transferred to nitrocellulose membranes. Membranes were blocked by 5% skim milk or 5% BSA in TBS-T. The following primary antibodies were used for immunoblotting: anti-6E10 for APP (1:1000, Biolegend 803003), anti-AT8 (1:1000, Invitrogen MN1020), anti-Tau (1:1000, Santa Cruz SC390476), anti-ionized calcium-binding adapter molecule (Iba1) (1:1000, CST, 17198S), anti-glial fibrillar acidic protein (GFAP) (1:2000, Milipore AB5541), anti-postsynaptic density protein 95 (PSD95) (1:1000, CST 3450S), anti-synaptophysin (1:1000, Milipore MAB5258), and anti-β-Actin (1:10,000, Milipore MAB1501). Membranes were incubated with primary antibodies at 4°C overnight and probed with HRP-conjugated IgG antibodies (1:10,000) in RT for an hour. Proteins were detected using an ECL kit (Thermo Fisher Scientific, USA). Membranes were washed with TBS-T in between steps, three times for 10 min.
Structure (SMILES),"Reduction of K18 aggregates (disaggregation, ThT) [1] [%]",Number of 6E10-stained plaques (5XFAD mice [2]),Plaque area (5XFAD mice [2]),Cortical and hippocampal APP levels (5XFAD mice [3]),"Reduction of GFAP expression (5XFAD mice [3]; cortical lysates, vs vehicle) [%]",Cortical total tau levels (5XFAD mice [3]; vs vehicle),Increase of cortical PSD95 levels (5XFAD mice [3]; vs vehicle) [%],Increase of cortical synaptophysin levels (5XFAD mice [3]; vs vehicle) [%],Reduction of cortical Iba1 levels (5XFAD mice [3]; vs vehicle) [%],Reduction of cortical phosphorylated tau (AT8) (5XFAD mice [3]; vs vehicle)
"CCC(C)(C)c1ccc(OCC(O)CN2CCCC2)c(C(C)(C)CC)c1.Cl (stereo not drawn) [YIAD002, 1-(3-(2,4-Di-tert-pentylphenoxy)-2-hydroxypropyl)pyrrolidin-1-ium chloride]",58.96,significantly reduced,significant decrease,did not induce significant shift,32.76,not affected,51.97,57.47,32.11,35.29%
"CCC(C)(C)c1ccc(OCC(O)CN2CCOCC2)c(C(C)(C)CC)c1.Cl (stereo not drawn) [YIAD001, 4-(3-(2,4-Di-tert-pentylphenoxy)-2-hydroxypropyl)morpholin-4-ium chloride]",18.06,significantly reduced,–,did not induce significant shift,–,not affected,44.59,38.68,26.08,did not affect
